Test results: US20110172296A1, “MODULATION OF TRANSFORMING GROWTH FACTOR-BETA 1 EXPRESSION” (priority 2010, published 2011)
Where “and” joins values, the source holds several entries; their conditions need not be identical. Identical values can stand only once. Entries after “also recorded” stand apart in the source; their conditions may differ. In the oligonucleotide strings, read from the 5' end, every base follows the letter of its sugar. An asterisk marks phosphorothioate; unmarked linkages are phosphodiester. Other units and linkages are bracketed, terminal groups are in braces. A string of capitals states the bases alone. e = 2'-O-(2-methoxyethyl) (MOE); [5mC] = 5-methylcytosine; d = 2'-deoxy (DNA)

Key:
[1] = tested on: bleomycin-induced skin fibrosis in C57BL/6 mice; experiment: Bleomycin-induced murine model of skin fibrosis: skin thickness and breaking strength (Example 10); format: in vivo, mouse; conditions: for bleomycin-induced skin fibrosis and thickening: C57BL/6 mice, 5 mg intradermally twice a week, Day 18
Procedure: The ability of a TGF-beta1 ASO to reduce the induction of skin fibrosis in a bleomycin-induced model of dermal fibrosis was evaluated.
Two groups of 8 C57BL/6 mice each were treated with bleomycin every other day for 19 days. Bleomycin, at a concentration of 10 mg/mL in PBS and at a volume of 0.1 mL, was injected subcutaneously into the shaved backs of the mice. The injection site was divided into 4 quadrants. The 100 μL volume of bleomycin was divided into four 25 μL aliquots injected at 90 degree intervals, to the upper left, upper right, lower left, and lower right “quadrants”.
Each of the two groups was treated intradermally with PBS (vehicle) or a 5 mg dose of a TGF-beta1 antisense oligonucleotide (Oligo ID 433849) twice a week, starting from day 1 of bleomycin administration. Animals were sacrificed on Day 18 of the study. Skin thickness was measured by skin calipers on 6-mm punch biopsy specimens obtained from the upper back of the mice. Breaking strength of the skin was measured on the 6-mm punch biopsy specimens using a tensiometer (Series EG2 digital force gauge; Mark-10, Copiague, N.Y.), and the point of maximal stress before tearing of the biopsy specimen was recorded. All measurements were undertaken in a blinded manner.

human TGF-beta1 mRNA [2] = experiment: Dose-dependent antisense inhibition of human TGF-beta1 in HuVEC cells, Lipofectamine 2000, 0.9375-30 nM (Example 3); format: cell-based; conditions: Lipofectamine 2000
Procedure: Cells were plated at a density of 5,000 cells per well and transfected using Lipofectamine™ 2000 reagent with 0.9375 nM, 1.875 nM, 3.75 nM, 7.5 nM, 15 nM, and 30 nM concentrations of antisense oligonucleotide for 4 hours, as specified in Table 3. After a recovery period of approximately 16 hours, RNA was isolated from the cells and TGF-beta1 mRNA levels were measured by quantitative real-time PCR. Human TGF-beta1 primer probe set RTS 2980 (forward sequence CTCTCCGACCTGCCACAGA, SEQ ID NO: 160; reverse sequence […], SEQ ID NO: 53; probe sequence CCCTATTCAAGACCACCCACCTTCTGGTX, SEQ ID NO: 161) was used to measure mRNA levels. TGF-beta1 mRNA levels were adjusted according to total RNA content, as measured by RIBOGREEN®. Results are presented as percent inhibition of TGF-beta1, relative to untreated control cells.

human TGF-beta1 mRNA [3] = experiment: Dose-dependent antisense inhibition of human TGF-beta1 in HuVEC cells, Lipofectamine 2000, 0.3292-80 nM, comparison with oligos of U.S. Pat. No. 6,436,909 (Example 4); format: cell-based
Procedure: The dose-dependent antisense inhibition potential of these gapmers was compared with that of Oligo IDs 104992 and 1138498 from U.S. Pat. No. 6,436,909. Cells were plated at a density of 5,000 cells per well and transfected using Lipofectamine™ 2000 reagent with 0.3292 nM, 0.9877 nM, 2.963 nM, 8.8889 nM, 26.6667 nM, and 80 nM concentrations of antisense oligonucleotide for 4 hours, as specified in Table 4. After a recovery period of approximately 16 hours, RNA was isolated from the cells and TGF-beta1 mRNA levels were measured by quantitative real-time PCR. Human TGF-beta1 primer probe set RTS 2980 was used to measure mRNA levels. TGF-beta1 mRNA levels were adjusted according to total RNA content, as measured by RIBOGREEN®. Results are presented as percent inhibition of TGF-beta1, relative to untreated control cells. […] All the antisense oligonucleotides in Table 4 target human TGF-beta1 mRNA (SEQ ID NO: 1).

BALB/c mice [4] = experiment: Tolerability in BALB/c mice: plasma transaminases ALT and AST (Example 7); conditions: for aspartate transaminase levels: plasma
Procedure: These gapmer oligonucleotides were designed to target human TGF-beta1 and have varying degrees of mismatch with murine TGF-beta1 sequence, as shown in Table 1. Oligo ID Nos. 413982 and 414040 have greater than 3 mismatches to the murine TGF-beta1 sequence. Oligo ID No. 414035 has 2 mismatches to murine TGF-beta1. Oligo ID No. 414036 has no mismatches to murine TGF-beta1.
BALB/c mice were injected with 25 mg/kg or 50 mg/kg of Oligo ID Nos. 413982, 414035, 414036, or 414040 twice a week for 4 weeks. A control group of mice was injected with phosphate buffered saline (PBS) twice a week for 4 weeks. Plasma transaminase levels were evaluated bi-weekly.
To evaluate the impact of TGF-beta1 antisense oligonucleotides on the hepatic function of mice described above, plasma concentrations of transaminases were measured using an automated clinical chemistry analyzer (Hitachi Olympus AU400e, Melville, N.Y.).

human TGF-beta1 mRNA [5] = experiment: Dose-dependent confirmation of antisense inhibition of human TGF-beta1 in HuVEC cells, electroporation (Example 6); format: cell-based
Procedure: The gapmers from Example 5 (see Table 5) were also tested at various doses in HuVEC cells using electroporation as the transfection reagent. Cells were plated at a density of 20,000 cells per well and transfected using electroporation with 0.15625 nM, 0.3125 nM, 0.625 nM, 1.25 nM, 2.5 nM, 5 nM, 10 nM, and 20 nM concentrations of antisense oligonucleotide for 4 hours, as specified in Table 6. After a recovery period of approximately 16 hours, RNA was isolated from the cells and TGF-beta1 mRNA levels were measured by quantitative real-time PCR. TGF-beta1 mRNA levels were adjusted according to total RNA content, as measured by RIBOGREEN®. Results are presented as percent inhibition of TGF-beta1, relative to untreated control cells.

human TGF-beta1 mRNA [6] = experiment: Antisense inhibition of human TGF-beta1 mRNA in HuVEC cells, single 10 nM dose, Lipofectamine 2000 (Example 2); format: cell-based
Summary of the method: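 Percent inhibition relative to untreated controls, from qRT-PCR of mRNA corrected for total RNA (RIBOGREEN). Cells were exposed 4 h to 10 nM phosphorothioate 2-13-5 MOE gapmers with Lipofectamine 2000 at 5,000 cells/well. RNA was harvested after roughly 24 h recovery.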

human TGF-beta1 mRNA [7] = experiment: Dose-dependent confirmation of antisense inhibition of human TGF-beta1 in HuVEC cells after large-scale synthesis, Lipofectamine 2000, 0.007-15 nM (Example 5); format: cell-based; conditions: for percent inhibition of TGF-beta1: Lipofectamine 2000
Procedure: Cells were plated at a density of 5,000 cells per well and transfected using Lipofectamine™ 2000 reagent with 0.007 nM, 0.021 nM, 0.062 nM, 0.185 nM, 0.556 nM, 1.667 nM, 5 nM, and 15 nM concentrations of antisense oligonucleotide for 4 hours, as specified in Table 5. After a recovery period of approximately 16 hours, RNA was isolated from the cells and TGF-beta1 mRNA levels were measured by quantitative real-time PCR. Human TGF-beta1 primer probe set RTS 2980 was used to measure mRNA levels. TGF-beta1 mRNA levels were adjusted according to total RNA content, as measured by RIBOGREEN®. Results are presented as percent inhibition of TGF-beta1, relative to untreated control cells.

BALB/c mice [8] = experiment: Tolerability in BALB/c mice: liver, kidney and spleen weights (Example 8); format: in vivo, mouse
Procedure: The mice were sacrificed 2 days after the last administration and liver, spleen and kidney weights were measured. Plasma transaminase levels were also evaluated.
The weights of liver, kidney and spleen of the mice were measured after 4 weeks and liver weights are presented in Table 10 as a percentage change compared to the corresponding weights in the PBS control. The percentage changes in kidney and spleen weight in the treated mice compared to the PBS control were negligible and are not shown.

bleomycin [reference compound]
skin thickness ([1]; bleomycin-treated mice, from 30 mm): 40-45 mm | breaking strength of skin ([1]; bleomycin-treated mice, untreated skin typically 0.2 kg tension): approximately 0.47 kg

414040 (antisense e[5mC]*eT*d[5mC]*dT*d[5mC]*dT*d[5mC]*d[5mC]*dA*dT*d[5mC]*dT*dT*dT*dA*eA*eT*eG*eG*eG) [compound 414040]
percent inhibition of TGF-beta1 (human TGF-beta1 mRNA [2]; 0.9375 nM): 72% | percent inhibition of TGF-beta1 (human TGF-beta1 mRNA [2]; 1.875 nM): 83% | percent inhibition of TGF-beta1 (human TGF-beta1 mRNA [2]; 3.75 nM): 90% | percent inhibition of TGF-beta1 (human TGF-beta1 mRNA [2]; 7.5 nM): 94% | percent inhibition of TGF-beta1 (human TGF-beta1 mRNA [2]; 15 nM): 95% | percent inhibition of TGF-beta1 (human TGF-beta1 mRNA [2]; 30 nM): 95% | percent inhibition of TGF-beta1 (human TGF-beta1 mRNA [3]; 0.3292 nM): 85% | percent inhibition of TGF-beta1 (human TGF-beta1 mRNA [3]; 0.9877 nM): 90% | percent inhibition of TGF-beta1 (human TGF-beta1 mRNA [3]; 2.963 nM): 94% | percent inhibition of TGF-beta1 (human TGF-beta1 mRNA [3]; 8.8889 nM): 94% | percent inhibition of TGF-beta1 (human TGF-beta1 mRNA [3]; 26.6667 nM): 94% | percent inhibition of TGF-beta1 (human TGF-beta1 mRNA [3]; 80.0 nM): 93% | alanine transaminase levels (BALB/c mice [4]; 25 mg/kg twice a week, Week 2): 178 IU/L | alanine transaminase levels (BALB/c mice [4]; 25 mg/kg twice a week, Week 4): 2248 IU/L | aspartate transaminase levels (BALB/c mice [4]; 25 mg/kg twice a week, Week 2): 128 IU/L | aspartate transaminase levels (BALB/c mice [4]; 25 mg/kg twice a week, Week 4): 1405 IU/L | alanine transaminase levels (BALB/c mice [4]; 50 mg/kg twice a week, Week 2): 837 IU/L | alanine transaminase levels (BALB/c mice [4]; 50 mg/kg twice a week, Week 4): 4997 IU/L | aspartate transaminase levels (BALB/c mice [4]; 50 mg/kg twice a week, Week 2): 529 IU/L | aspartate transaminase levels (BALB/c mice [4]; 50 mg/kg twice a week, Week 4): 2237 IU/L | increase in ALT levels (BALB/c mice [4]; compared to placebo (PBS) controls): > 160 fold and 166 fold | percent inhibition of TGF-beta1 mRNA relative to untreated control cells (human TGF-beta1 mRNA [5]; 0.15625 nM oligonucleotide): 57% | percent inhibition of TGF-beta1 mRNA relative to untreated control cells (human TGF-beta1 mRNA [5]; 0.3125 nM oligonucleotide): 68% | percent inhibition of TGF-beta1 mRNA relative to untreated control cells (human TGF-beta1 mRNA [5]; 0.625 nM oligonucleotide): 81% | percent inhibition of TGF-beta1 mRNA relative to untreated control cells (human TGF-beta1 mRNA [5]; 1.25 nM oligonucleotide): 91% | percent inhibition of TGF-beta1 mRNA relative to untreated control cells (human TGF-beta1 mRNA [5]; 2.5 nM oligonucleotide): 93% | percent inhibition of TGF-beta1 mRNA relative to untreated control cells (human TGF-beta1 mRNA [5]; 5.00 nM oligonucleotide): 95% | percent inhibition of TGF-beta1 mRNA relative to untreated control cells (human TGF-beta1 mRNA [5]; 10.00 nM oligonucleotide): 94% | percent inhibition of TGF-beta1 mRNA relative to untreated control cells (human TGF-beta1 mRNA [5]; 20 nM oligonucleotide): 94% | % inhibition (human TGF-beta1 mRNA [6]; 10 nM oligonucleotide, HuVEC, relative to untreated control cells, gapmers targeted to SEQ ID NO: 1): 90% | inhibition of a TGF-beta1 mRNA (human TGF-beta1 mRNA [6]; threshold lists of Oligo IDs, 10 nM): 60% and 65% and 70% and 75% and 80% and 85% and 90% | percent inhibition of TGF-beta1 (human TGF-beta1 mRNA [7]; 0.007 nM): 19% | percent inhibition of TGF-beta1 (human TGF-beta1 mRNA [7]; 0.021 nM): 45% | percent inhibition of TGF-beta1 (human TGF-beta1 mRNA [7]; 0.062 nM): 58% | percent inhibition of TGF-beta1 (human TGF-beta1 mRNA [7]; 0.185 nM): 76% | percent inhibition of TGF-beta1 (human TGF-beta1 mRNA [7]; 0.556 nM): 83% | percent inhibition of TGF-beta1 (human TGF-beta1 mRNA [7]; 1.667 nM): 89% | percent inhibition of TGF-beta1 (human TGF-beta1 mRNA [7]; 5 nM): 92% | percent inhibition of TGF-beta1 (human TGF-beta1 mRNA [7]; 15 nM): 93% | IC50 (human TGF-beta1 mRNA [7]; Lipofectamine 2000, Example 5): 0.04 nM

Oligo ID 433849: rat specific TGF-beta1 antisense oligonucleotide; SEQ ID NO. 166 (antisense GTCCTTAAATACAGCCCCGG; listed as DNA, chemistry not given here) [rat specific TGF-beta1 antisense oligonucleotide; 166]
bleomycin-induced skin fibrosis and thickening [1]: significantly reduced | bleomycin-induced skin fibrosis and thickening ([1]; listed as TGF-beta1 ASO): significantly reduced; also recorded: reduced the severity

105204 (antisense GTCCACCATTAGCACGCGGG; chemistry not given here) [compound 105204]
Liver % Weight change relative to PBS control (BALB/c mice [8]; 25 mg/kg twice a week for 4 weeks): +28% | Liver % Weight change relative to PBS control (BALB/c mice [8]; 50 mg/kg twice a week for 4 weeks): +73% | increase in liver weight (BALB/c mice [8]; 25 or 50 mg/kg twice a week for 4 weeks, vs PBS control): > 70%
